How the values were obtained:
[1] = tested on: enterococci; experiment: iodine wash of natural Santa Monica beach soil sample; assay type: cell-based; conditions: started at 1100 MPN, wash samples greater than 10 parts per million, all of five consecutive washes
Description: In a first experiment, a natural sample from Santa Monica beach was user. This soil sample was taken from an area close to a storm drain. Concentrations started at 1100 MPN enterococci per 100 gram sediment were used. Wash samples having a concentration of greater than 10 parts per million were used on the soil samples. Enterocci concentrations approached zero for all of five consecutive washes. A longer term experiment was then performed with sand dosed with a pure culture of enterococci, the >10 ppm iodine solution imbibed in the soil, and then autoclaving. The bacterial level started at 1050 MPN/100 g, and went to zero immediately upon treatment. This was clearly evidenced in five washes (all zero). Two samples were treated with >10 ppm iodine solutions and left to sit on the roof for several days. The bacterial levels were approximately zero at the end of the experiment. Samples that were imbibed with the >10 ppm solution and the sand raked, had bacterial levels that decreased in concentration during the days, and rebounded at night for two nights, and then ended up at zero, indicating effectiveness of the solution, and a benefit to combination of the solution with heat and/or light. The undisturbed controls in both dark and light ended up with countable bacteria at the end. […]

[2] = tested on: enterococci; experiment: longer term experiment, sand dosed with pure culture of enterococci and imbibed with iodine solution; assay type: cell-based
Description: In a first experiment, a natural sample from Santa Monica beach was user. This soil sample was taken from an area close to a storm drain. Concentrations started at 1100 MPN enterococci per 100 gram sediment were used. Wash samples having a concentration of greater than 10 parts per million were used on the soil samples. Enterocci concentrations approached zero for all of five consecutive washes. A longer term experiment was then performed with sand dosed with a pure culture of enterococci, the >10 ppm iodine solution imbibed in the soil, and then autoclaving. The bacterial level started at 1050 MPN/100 g, and went to zero immediately upon treatment. This was clearly evidenced in five washes (all zero). Two samples were treated with >10 ppm iodine solutions and left to sit on the roof for several days. The bacterial levels were approximately zero at the end of the experiment. Samples that were imbibed with the >10 ppm solution and the sand raked, had bacterial levels that decreased in concentration during the days, and rebounded at night for two nights, and then ended up at zero, indicating effectiveness of the solution, and a benefit to combination of the solution with heat and/or light. The undisturbed controls in both dark and light ended up with countable bacteria at the end.
In a first experiment showing the efficacy of the iodine treatment on bacteria in soil, a natural sample from Santa Monica beach was user. This soil sample was taken from an area close to a storm drain. Concentrations started at 1100 MPN enterococci per 100 gram sediment were used. Wash samples having a concentration of greater than 10 parts per million were used on the soil samples. Enterocci concentrations approached zero for all of five consecutive washes. A longer term experiment was then performed with sand dosed with a pure culture of enterococci, the >10 ppm iodine solution imbibed in the soil, and then autoclaving. The bacterial level started at 1050 MPN/100 g, and went to zero immediately upon treatment. This was clearly evidenced in five washes (all zero). […]

With II [iodine solution, molecular iodine] the “Enterocci concentrations after wash” value [1] was “approximately zero”, the “bacterial levels at end, imbibed and raked sand” value ([2]; >10 ppm solution, sand raked, decreased during the days, rebounded at night for two nights) was “zero” and the “bacterial level immediately upon treatment” value ([2]; sand dosed with pure culture, started at 1050 MPN/100 g, >10 ppm iodine solution imbibed, five washes (all zero)) was “zero”. The “bacterial levels at the end of the experiment” value ([2]; two samples treated with >10 ppm iodine solutions, left to sit on the roof for several days) was “approximately zero”.

From patent publication US8257749B2, “Systems providing at least pesticidal activity” (Biolargo Life Technologies, Incorporated, priority 2007, dated 2012)
